The values that follow come from BindingDB's records for doi:10.1021/jm010282t (Tohoku Pharmaceutical University, 2001).

In this test the target is T1, Aromatase (Homo sapiens, UniProt P11511).
T1 sequence (P11511 whole entry): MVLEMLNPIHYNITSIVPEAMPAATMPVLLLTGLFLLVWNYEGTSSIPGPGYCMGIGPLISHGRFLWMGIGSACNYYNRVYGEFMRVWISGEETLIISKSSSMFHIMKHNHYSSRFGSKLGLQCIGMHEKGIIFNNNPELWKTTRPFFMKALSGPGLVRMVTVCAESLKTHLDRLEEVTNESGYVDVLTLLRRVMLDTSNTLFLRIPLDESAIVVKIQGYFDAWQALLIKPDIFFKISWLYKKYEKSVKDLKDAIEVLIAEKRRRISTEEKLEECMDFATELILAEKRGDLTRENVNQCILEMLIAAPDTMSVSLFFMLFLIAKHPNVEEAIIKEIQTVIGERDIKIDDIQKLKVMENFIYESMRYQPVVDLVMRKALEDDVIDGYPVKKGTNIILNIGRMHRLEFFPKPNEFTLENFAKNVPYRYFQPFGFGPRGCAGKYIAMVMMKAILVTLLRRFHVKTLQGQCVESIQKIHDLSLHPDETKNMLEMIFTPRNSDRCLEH
The experiment in a line: Aromatase Assay. Particulars: pH 7.5; 37 °C.
Procedure: The enzyme activity was assayed by measuring the 3H-labeled H2O formed from [1beta-3H] Androstenedione during aromatization. After incubation, the reaction was terminated by CHCl3 extraction and centrifugation. Aliquots of the water phase were assayed for the presence of 3H2O by counting using a liquid scintillation spectrometer.
With `CO[C@H]1CCC[C@@]2(CO)C1=CCC1C2CC[C@]2(C)C(=O)CCC12` (stereo partly drawn) [4beta-Methoxy-19-hydroxyandrost-5-en-17-one], the IC50 was found to be 150000 nM.
In turn, `C[C@]12CCC3C(C[C@@H](O)C4=CCCC[C@@]43CO)C1CCC2=O` (stereo partly drawn) [6beta,19-dihydroxyandrost-4-en-17-one] displayed a 50% inhibitory concentration (IC50) of 940 nM and a Ki of 110 nM.
`C[C@]12CCCCC1=CCC1C2CC[C@]2(C)C(=O)CCC12` (stereo partly drawn) [(2R,15S)-2,15-dimethyltetracyclo[8.7.0.0^{2,7}.0^{11,15}]heptadec-7-en-14-one] showed a half-inhibitory concentration (IC50) of 660 nM and a Ki of 120 nM.
Consider `CC(=O)O[C@@H]1CCC[C@@]2(CO)C1=CCC1C2CC[C@]2(C)C(=O)CCC12` (stereo partly drawn) [(2S,6R,15S)-2-(hydroxymethyl)-15-methyl-14-oxotetracyclo[8.7.0.0^{2,7}.0^{11,15}]heptadec-7-en-6-yl acetate], for which the IC50 was determined as 11000 nM.
For the compound `C[C@]12CCC3C(C[C@H](O)C4=CCCC[C@@]43CO)C1CCC2=O` (stereo partly drawn) [(2S,8S,15S)-8-hydroxy-2-(hydroxymethyl)-15-methyltetracyclo[8.7.0.0^{2,7}.0^{11,15}]heptadec-6-en-14-one], the IC50 came out at 1400 nM and the Ki amounted to 250 nM.
In the same order, the values of `C[C@]12CCC3C(CCC4=CCCC[C@@]43CO)C1CCC2=O` (stereo partly drawn) [(2S,15S)-2-(hydroxymethyl)-15-methyltetracyclo[8.7.0.0^{2,7}.0^{11,15}]heptadec-6-en-14-one] are 49 nM and 5.8 nM.
In turn, `C[C@]12CCC3C(CC=C4CCCC[C@@]43CO)C1CCC2=O` (stereo partly drawn) [(2S,15S)-2-(hydroxymethyl)-15-methyltetracyclo[8.7.0.0^{2,7}.0^{11,15}]heptadec-7-en-14-one] had an IC50 of 6900 nM and a Ki of 1000 nM.

As usually defined, the IC50 is the concentration at which inhibition is half-maximal. A low value points to greater potency in that assay. Broadly, the Ki is the equilibrium dissociation constant of an inhibitor or competing ligand from its target. High values mean a looser hold on the target, low ones a stronger hold on the target.
